Reference: patent publication US20250222028A1, “ENGINEERED IMMUNE CELL PLATFORM” (Cancer Research Technology Limited, priority 2022, published 2025)

Experiments:
Gli1 = Gli1 expression by qRT-PCR in anti-CD3ε-stimulated murine CD8+ CTLs; format: cell-based
Description: (§1) FIG. 1. L-type Cav channel agonists increase Gli1 expression and enhance specific cell killing by murine CD8+ CTLs. CD8^+ T cells were isolated from the spleen and inguinal lymph nodes of Rag2^−/− OT-I mice, and CTLs were generated. (A) Cells were restimulated on day 9/10 for 3 hours using plate-bound anti-CD3ε in the presence of indicated concentrations of FPL 64176 or carrier control. RNA was extracted and Gli1 expression was assessed by qRT-PCR. Data is n=3 independent experiments. us=unstimulated cells. (B) An LDH cytotoxicity assay was performed using OT-I CTLs. On day 7, CTLs were co-cultured with Ova peptide-pulsed EL-4 cells in the presence of 10 μM FPL 64176 (squares) or carrier control (circles). Data is n=4 independent experiments. (C) Updated experiment of (A). Data is now n=4 independent experiments. Data is normalised to Tbp as a reference gene. 0h=unstimulated cells. (D) Same data as (B) represented differently. […] Error bars indicate SD. p values were calculated using an unpaired two-tailed Student's t test (C) or a two-way ANOVA (B/D). * indicates p<0.05, ** indicates p<0.01, **** indicates p<0.0001.
FIG. 2. FPL 64176 but not (R)-Baclofen nor Nefiracetam enhance Gli1 expression in murine CD8+ CTLs. Naïve CD8^+ T cells were isolated from the spleens of OT-I Rag2^−/− mice and CTLs were generated. Cells were restimulated using an anti-CD3ε mAb in the presence indicated concentrations of (A) FPL 64176, (B) (R)-Baclofen or (C) Nefiracetam (or carrier control). CTLs were pre-incubated with the relevant pharmacological agents for 40-50 mins prior to stimulation (ensuring sufficient time for the agents, e.g., FPL 64176, to enter the cell. Gli1 expression was assessed by qRT-PCR. Data is n=2 independent experiments. Error bars indicate SD.
To investigate a potential role for L-type Cav channel agonists in modulating CD8+ CTL activation and effector function, CD8+ T cells were isolated from the spleen and inguinal lymph nodes of Rag2−/− OT-I mice and CTLs were generated. […] OT-I mice bear a transgene encoding for a TCR that recognises a chicken ovalbumin (Ova) peptide fragment. Rag2−/− OT-I mice facilitate the isolation of naïve CD8+ T cell populations. Plates were coated using 2.5 μg/mL anti-CD3ε mAb and CD8+ CTLs were stimulated for 3 hours via the TCR in the presence of 5 or 10 μM FPL 64176, an L-type Cav channel agonist, or carrier control. Note that CD8+ CTLs were pre-incubated with FPL 64176 or carrier control for 40-50 mins before stimulation. Gli1 expression was assessed using qRT-PCR.
In brief, naïve CD8+ T cells were isolated from the spleen and inguinal lymph nodes of C57BL/6 wildtype mice and CTLs were generated. […] RNA was extracted from cells and Gli1 expression was assessed by qRT-PCR. […]

EL-4 tumour cells = assay: LDH cytotoxicity assay, OT-I CD8+ CTLs co-cultured with Ova peptide-pulsed EL-4 target cells; format: cell-based, murine; settings: 10 μM, over a range of effector-to-target ratios, vs carrier control
Description: as §1
FIG. 11. […] (A) Quantitative analysis of live cell numbers. […] (E) Quantitative analysis of live cell numbers. […]
To ensure that the use of L-type Cav agonist is not adversely affecting immune cells, general cell functions were assessed. […]

COC(=O)c1c(C)[nH]c(C)c1C(=O)c1ccccc1Cc1ccccc1 [FPL 64176]
Gli1 expression following TCR activation (Gli1; anti-CD3ε restimulation 6 hours, indicated concentrations, vs carrier control (FIG. 2)): successfully enhances | Gli1 expression (Gli1; anti-CD3ε stimulation 3 hours, 5 or 10 μM, pre-incubation 40-50 mins, vs carrier control): dose-dependent increase | improvement of specific cell killing of EL-4 tumour cells (EL-4 tumour cells): at least 100%
